The record followed here is US10357481B2 (MERCK SHARP & DOHME CORP., priority 2015, dated 2019).

In the assay the target is T1, human PDE2A1 (Homo sapiens, UniProt O00408).
T1 construct: GST; purchased BPS Bioscience (San Diego, Calif.) 60020; host or cells: insect cells
Briefly: IMAP FP PDE selectivity panel, human PDE2A1. It is filed as biochemical. The conditions noted are these: Lab B; read-out: Human PDE2 Ki (nM) Lab B. In a few lines:
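IMAP FP read-out, run at room temperature in parallel with PDE1–11: enzyme at 20% substrate conversion, 50 nM FAM-cAMP containing 1000 nM cGMP, Tris pH 7.2/MgCl2/DTT buffer. Compounds as ten 3-fold dilutions. Reaction 60 min, stopped with binding reagent for 1 h before polarization measurement.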

T1 sequence (O00408 1-920 isoform O00408-2): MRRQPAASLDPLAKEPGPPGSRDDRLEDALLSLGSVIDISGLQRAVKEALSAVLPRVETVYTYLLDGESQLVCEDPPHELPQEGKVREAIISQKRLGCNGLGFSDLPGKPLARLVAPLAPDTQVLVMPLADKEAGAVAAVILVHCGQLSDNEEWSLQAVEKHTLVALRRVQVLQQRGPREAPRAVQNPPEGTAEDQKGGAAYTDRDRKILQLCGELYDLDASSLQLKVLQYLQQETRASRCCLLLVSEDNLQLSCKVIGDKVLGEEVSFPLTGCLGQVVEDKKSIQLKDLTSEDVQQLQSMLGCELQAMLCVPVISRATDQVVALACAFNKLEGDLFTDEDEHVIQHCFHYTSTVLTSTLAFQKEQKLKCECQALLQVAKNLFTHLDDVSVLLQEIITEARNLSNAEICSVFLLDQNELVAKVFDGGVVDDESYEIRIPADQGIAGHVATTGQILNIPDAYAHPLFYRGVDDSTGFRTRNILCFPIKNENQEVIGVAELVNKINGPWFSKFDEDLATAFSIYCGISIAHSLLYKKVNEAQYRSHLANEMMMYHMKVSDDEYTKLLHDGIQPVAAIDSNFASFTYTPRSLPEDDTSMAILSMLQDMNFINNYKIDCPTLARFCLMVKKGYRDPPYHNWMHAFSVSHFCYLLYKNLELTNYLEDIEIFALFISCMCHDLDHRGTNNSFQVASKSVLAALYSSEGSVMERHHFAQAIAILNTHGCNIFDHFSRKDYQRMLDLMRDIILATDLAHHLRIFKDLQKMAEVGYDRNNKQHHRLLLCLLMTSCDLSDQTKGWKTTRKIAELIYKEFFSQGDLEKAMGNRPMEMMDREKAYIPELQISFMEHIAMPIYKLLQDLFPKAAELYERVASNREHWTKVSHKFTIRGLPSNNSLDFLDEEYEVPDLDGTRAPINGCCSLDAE

Usually Ki stands for a measure of affinity in units of concentration, obtained from inhibition or displacement. Consider `CC(C)(O)C(Nc1cc(C(F)F)nc2ncnn12)c1ccc(C(F)(F)F)c(F)c1` (single isomer, unassigned) [Example 227, (R)- or (S)-1-(5-(Difluoromethyl)-[1,2,4]triazolo [1,5-a]pyrimidin-7-ylamino)-1-(3-fluoro-4-(trifluoromethyl)phenyl)-2-methylpropan-2-ol], for which the inhibition constant (Ki) was determined as 7.6 nM.
In the case of `CC(C)(O)C(Nc1cc(C(F)F)nc2ncnn12)c1ccc(C(F)(F)F)c(F)c1` (single isomer, unassigned) [Example 228, (S)- or (R)-1-(5-(Difluoromethyl)-[1,2,4]triazolo [1,5-a]pyrimidin-7-ylamino)-1-(3-fluoro-4-(trifluoromethyl)phenyl)-2-methylpropan-2-ol], the Ki is above 2960 nM.
For the molecule `Cc1cc(NC(c2ccc(OC(F)(F)F)c(F)c2)C2COC2)n2ncnc2n1` (single isomer, unassigned) [Example 229, (R)- or (S)-N-((3-Fluoro-4-(trifluoromethoxy)phenyl)(oxetan-3-yl)methyl)-5-methyl-[1,2,4]triazolo [1,5-a]pyrimidin-7-amine], the Ki was found to be 448 nM.
With `Cc1cc(NC(c2ccc(OC(F)(F)F)c(F)c2)C2COC2)n2ncnc2n1` (single isomer, unassigned) [Example 230, (S)- or (R)-N-((3-Fluoro-4-(trifluoromethoxy)phenyl)(oxetan-3-yl)methyl)-5-methyl-[1,2,4]triazolo [1,5-a]pyrimidin-7-amine], the inhibition constant Ki stood at 167 nM.
Take `Cc1cc(NC(c2ccc(OC(F)(F)F)c(F)c2)C(C)(C)CO)n2ncnc2n1` (single isomer, unassigned) [Example 232, (S or S)-3-(3-fluoro-4-(trifluoromethoxy)phenyl)-2,2-dimethyl-3-(5-methyl-[1,2,4]triazolo[1,5-a]pyrimidin-7-ylamino)propan-1-ol]: the inhibition constant Ki is above 2960 nM.
Regarding `COc1cc(N[C@H](c2ccc(C(F)(F)F)c(F)c2)C(C)(C)O)n2ncnc2n1` (single isomer, unassigned) [Example 236], the Ki amounted to 210 nM.
Then `COc1cc(N[C@@H](c2ccc(C(F)(F)F)c(F)c2)C(C)(C)O)n2ncnc2n1` (single isomer, unassigned) [Example 237], with 1690 nM.
To `CN(C)c1cc(N[C@H](c2ccc(C(F)(F)F)c(F)c2)C(C)(C)O)n2ncnc2n1` (single isomer, unassigned) [Example 243] belongs above 2960 nM.
Turning to `CN(C)c1cc(N[C@@H](c2ccc(C(F)(F)F)c(F)c2)C(C)(C)O)n2ncnc2n1` (single isomer, unassigned) [Example 244], the inhibition constant (Ki) was 377 nM.
On to `Cc1cc(N(C)C(c2ccc(OC(F)(F)F)c(F)c2)C(C)(C)O)n2ncnc2n1` (single isomer, unassigned) [Example 247, (R)- or (S)-1-(3-Fluoro-4-(trifluoromethoxy)phenyl)-2-methyl-1-(methyl(5-methyl-[1,2,4]triazolo [1,5-a]pyrimidine-7-yl)amino)propan-2-ol], for which the Ki came to 24 nM.
For the molecule `Cc1cc(N(C)C(c2ccc(OC(F)(F)F)c(F)c2)C(C)(C)O)n2ncnc2n1` (single isomer, unassigned) [Example 248, (S)- or (R)-1-(3-Fluoro-4-(trifluoromethoxy)phenyl)-2-methyl-1-(methyl(5-methyl-[1,2,4]triazolo [1,5-a]pyrimidine-7-yl)amino) propan-2-ol], the inhibition constant Ki was above 2960 nM.
Regarding `CC(C)(N)C(Nc1cc(C(F)(F)F)nc2ncnn12)c1ccc(C(F)(F)F)c(F)c1` (single isomer, unassigned) [Example 253, (R)- or (S)-1-(3-Fluoro-4-(trifluoromethyl)phenyl)-2-methyl-N^1-(5-(trifluoromethyl)-[1,2,4]triazolo [1,5-a]pyrimidin-7-yl) propane-1,2-diamine], the Ki came out at 83 nM.
Then `CC(C)(N)C(Nc1cc(C(F)(F)F)nc2ncnn12)c1ccc(C(F)(F)F)c(F)c1` (single isomer, unassigned) [Example 254, (S)- or (R)-1-(3-Fluoro-4-(trifluoromethyl)phenyl)-2-methyl-N^1-(5-(trifluoromethyl)-[1,2,4]triazolo [1,5-a]pyrimidin-7-yl) propane-1,2-diamine], with above 2960 nM; and `Cc1cc(O[C@@H](c2ccc(C(F)(F)F)cc2)C(C)(C)C)n2ncnc2n1` (single isomer, unassigned) [Example 260], with 14 nM.
Then `Cc1cc(O[C@H](c2ccc(C(F)(F)F)cc2)C(C)(C)C)n2ncnc2n1` (single isomer, unassigned) [Example 261], with above 2960 nM; and `Cc1cc(N[C@H](c2ccc(C(F)(F)F)c(F)c2)C(C)(C)O)nc2ncnn12` (single isomer, unassigned) [Example 291], with 183 nM; and `Cc1cc(N[C@@H](c2ccc(C(F)(F)F)c(F)c2)C(C)(C)O)nc2ncnn12` (single isomer, unassigned) [Example 292], with above 2960 nM.
As to `CC(C)c1cc(NC(c2ccc(C(F)(F)F)cc2)C(C)(C)O)n2ncnc2n1` (stereo in doubt) [Example 156, (1S)-2-Methyl-1-{[5-(1-methylethyl)[1,2,4]triazolo[1,5-a]pyrimidin-7-yl]amino}-1-[4-(trifluoromethyl)phenyl]propan-2-ol], the Ki was 636 nM.
To `CC(C)(O)C(Nc1cc(C2CC2)nc2ncnn12)c1ccc(C(F)(F)F)cc1` (stereo in doubt) [Example 157, (1S)-1-[(5-Cyclopropyl[1,2,4]triazolo[1,5-a]pyrimidin-7-yl)amino]-2-methyl-1-[4-(trifluoromethyl)phenyl]propan-2-ol] belongs 37 nM; to `CC(C)(C)c1cc(NC(c2ccc(C(F)(F)F)cc2)C(C)(C)O)n2ncnc2n1` (stereo in doubt) [Example 158, (1S)-1-[(5-tert-Butyl[1,2,4]triazolo[1,5-a]pyrimidin-7-yl)amino]-2-methyl-1-[4-(trifluoromethyl)phenyl]propan-2-ol], around 2340 nM; to `Cc1cc(NC(c2ccc(OC(F)(F)F)cc2F)C(C)(C)O)n2nc(N)nc2n1` (stereo in doubt) [Example 258, (1S)-1-[(2-Amino-5-methyl[1,2,4]triazolo[1,5-a]pyrimidin-7-yl)amino]-1-[2-fluoro-4-(trifluoromethoxy)phenyl]-2-methylpropan-2-ol], 6 nM.
To `Cc1cc(N[C@H](C)c2ccc(C(F)(F)F)cc2)n2ncnc2n1` [Example 1, 5-Methyl-N-{(1R)-1-[4-(trifluoromethyl)phenyl]ethyl}[1,2,4]triazolo[1,5-a]pyrimidin-7-amine] belongs 175 nM; to `Cc1cc(N[C@@H](C)c2ccc(C(F)(F)F)cc2)n2ncnc2n1` [Example 2, 5-Methyl-N-{(1S)-1-[4-(trifluoromethyl)phenyl]ethyl}[1,2,4]triazolo[1,5-a]pyrimidin-7-amine], around 1540 nM.
Regarding `Cc1cc(N[C@H](C)c2ccc(C(F)(F)F)c(F)c2)n2ncnc2n1` [Example 3, N-{(1R)-1-[3-Fluoro-4-(trifluoromethyl)phenyl]ethyl}-5-methyl[1,2,4]triazolo[1,5-a] pyrimidin-7-amine], the Ki amounted to 115 nM.
`Cc1cc(N[C@H](C)c2ccc(CC(F)(F)F)cc2)n2ncnc2n1` [Example 4, 5-Methyl-N-{(1R)-1-[4-(2,2,2-trifluoroethyl)phenyl]ethyl}[1,2,4] triazolo[1,5-a]pyrimidin-7-amine]: the Ki worked out at 108 nM.
To `Cc1cc(N[C@H](C)c2ccc(C(F)(F)F)c(Cl)c2)n2ncnc2n1` [Example 5, N-{(1R)-1-[3-Chloro-4-(trifluoromethyl)phenyl]ethyl}-5-methyl[1,2,4]triazolo[1,5-a] pyrimidin-7-amine] belongs 113 nM.
Then `Cc1cc(N[C@H](C)c2cc(F)c(C(F)(F)F)cc2F)n2ncnc2n1` [Example 6, N-{(1R)-1-[2,5-Difluoro-4-(trifluoromethyl)phenyl]ethyl}-5-methyl[1,2,4]triazolo[1,5-a] pyrimidin-7-amine], with 482 nM; and `Cc1cc(N[C@H](C)c2ccc(OC(F)(F)F)cc2)n2ncnc2n1` [Example 7, 5-Methyl-N-{(1R)-1-[4-(trifluoromethoxy)phenyl]ethyl} [1,2,4]triazolo[1,5-a]pyrimidin-7-amine], with 132 nM.
Regarding `Cc1cc(N[C@H](C)c2ccc(OC(F)(F)F)c(F)c2)n2ncnc2n1` [Example 8, N-{(1R)-1-[3-Fluoro-4-(trifluoromethoxy)phenyl]ethyl}-5-methyl[1,2,4]triazolo[1,5-a] pyrimidin-7-amine], the Ki amounted to 57 nM.
To `Cc1cc(N[C@H](C)c2ccc(OC(F)(F)F)c(Cl)c2)n2ncnc2n1` [Example 9, N-{(1R)-1-[3-Chloro-4-(trifluoromethoxy)phenyl]ethyl}-5-methyl[1,2,4]triazolo[1,5-a] pyrimidin-7-amine] belongs 138 nM.
To `Cc1cc(N[C@H](C)c2ccc(SC(F)(F)F)cc2)n2ncnc2n1` [Example 10, 5-Methyl-N-[(1R)-1-{4-[(trifluoromethyl)sulfanyl]phenyl}ethyl][1,2,4]triazolo[1,5-a]pyrimidin-7-amine] belongs 21 nM.
Then `Cc1cc(N[C@H](C)c2ccc(SC(F)(F)F)c(F)c2)n2ncnc2n1` [Example 11, N-[(1R)-1-{3-Fluoro-4-[(trifluoromethyl)sulfanyl]phenyl}ethyl]-5-methyl[1,2,4]triazolo [1,5-a]pyrimidin-7-amine], with 18 nM; and `Cc1cc(N[C@H](C)c2ccc(S(F)(F)(F)(F)F)cc2)n2ncnc2n1` [Example 12, 5-Methyl-N-{(1R)-1-[4-(pentafluoro-λ^6-sulfanyl)phenyl)ethyl} [1,2,4]triazolo[1,5-a]pyrimidin-7-amine], with 68 nM; and `Cc1cc(N[C@H](C)c2ccc(C(C)C)cc2)n2ncnc2n1` [Example 13, 5-Methyl-N-{(1R)-1-[4-(1-methylethyl)phenyl]ethyl}[1,2,4] triazolo[1,5-a]pyrimidin-7-amine], with 122 nM.
